Laboratory results from PMC10674657, “Quinazolin-4-one/3-cyanopyridin-2-one Hybrids as Dual Inhibitors of EGFR and BRAF^V600E: Design, Synthesis, and Antiproliferative Activity” (Pharmaceuticals, 2023).

What was measured:
[1] = tested on: HT-29 human colon cancer cell line; test: Antiproliferative assay, HT-29; details: Homo sapiens, HT-29, read-out: Antiproliferative Activity IC50 ± SEM, HT-29
Description: (§1) For a rigorous assessment, the widely accepted MTT assay [63, 64] was employed. Using Doxorubicin, a well-established drug, as the reference standard ensures a benchmark for the synthesized compounds, allowing a contextual understanding of their efficacy.
(§2) The MTT assay [63, 64] was employed for this assessment, with Doxorubicin as the reference drug.
(§3) 24h followed by the addition of synthesized compounds (in 200 μL medium to yield a final concentration of 0.1% (v/v) dimethyl sulfoxide) into individual wells of the plates. Four wells were designated to a single compound. The plates were allowed to incubate at 37°C for 96 h. After wards, the medium was aspirated and 3-[4,5-dimethylthiazol-2-yl]-2,5-diphenyltetrazolium bromide (MTT) (0.4 mg/mL) in medium was added to each well and subsequently incubated for 3 h. The medium was aspirated and 150 μL dimethyl sulfoxide (DMSO) was added to each well.
(§4) The plates were vortexed followed by the measurement of absorbance at 540 nm on a microplate

[2] = tested on: A-549 human lung carcinoma cell line; test: Antiproliferative assay, A-549; details: Homo sapiens, A549, read-out: Antiproliferative Activity IC50 ± SEM, A-549
Description: as §1, §2, §3, §4

[3] = tested on: Panc-1 human pancreatic cancer cell line; test: Antiproliferative assay, Panc-1; details: Homo sapiens, PANC-1, read-out: Antiproliferative Activity IC50 ± SEM, Panc-1
Description: as §1, §2, §3, §4

[4] = Cell viability (cytotoxicity) MTT assay in non-tumorigenic MCF-10A cells; assay type: cell-based, human; details: human, MCF-10A mammary epithelial cells
[5] = tested on: MCF-7 human breast adenocarcinoma cell line; test: Antiproliferative assay, MCF-7; details: Homo sapiens, MCF7, read-out: Antiproliferative Activity IC50 ± SEM, MCF-7
Description: as §1, §2, §3, §4

[6] = tested on: four cancer cell lines (A-549, MCF-7, Panc-1, HT-29); test: Antiproliferative assay, average over four cancer cell lines (GI50); details: Homo sapiens, read-out: Average IC50 (GI50)
Description: as §1, §2, §3, §4

[7] = target: T1, BRAF^V600E (Mus musculus, UniProt P28028, V585E); test: BRAF V600E kinase inhibitory assay; assay type: biochemical; details: for IC50: BRAF V600E, mean ± SEM, read-out: BRAF Inhibition IC50 ± SEM
T1 construct: Mouse full-length GST-tagged; purchased Invitrogen PV3849
T1 sequence (P28028 whole entry V585E): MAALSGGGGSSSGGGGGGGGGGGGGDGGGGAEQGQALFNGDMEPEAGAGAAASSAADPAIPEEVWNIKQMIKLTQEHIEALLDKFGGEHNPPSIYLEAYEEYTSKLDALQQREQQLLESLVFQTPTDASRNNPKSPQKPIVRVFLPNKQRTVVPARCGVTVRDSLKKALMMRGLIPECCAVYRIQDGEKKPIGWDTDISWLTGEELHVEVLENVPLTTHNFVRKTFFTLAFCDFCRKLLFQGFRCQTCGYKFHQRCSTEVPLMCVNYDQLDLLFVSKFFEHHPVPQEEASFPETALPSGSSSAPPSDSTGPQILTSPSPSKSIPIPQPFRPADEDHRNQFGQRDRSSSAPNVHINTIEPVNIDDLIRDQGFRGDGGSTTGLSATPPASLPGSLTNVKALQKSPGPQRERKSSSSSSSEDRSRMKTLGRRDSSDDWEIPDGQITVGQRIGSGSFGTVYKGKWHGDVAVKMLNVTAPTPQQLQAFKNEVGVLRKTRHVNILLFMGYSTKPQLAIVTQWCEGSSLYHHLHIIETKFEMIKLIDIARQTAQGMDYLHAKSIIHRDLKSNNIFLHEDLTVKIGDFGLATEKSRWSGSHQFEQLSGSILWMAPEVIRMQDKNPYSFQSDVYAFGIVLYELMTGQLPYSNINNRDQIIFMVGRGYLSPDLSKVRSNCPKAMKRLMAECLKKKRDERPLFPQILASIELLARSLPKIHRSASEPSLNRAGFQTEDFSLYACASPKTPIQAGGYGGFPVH
Description: Mouse full-length GST-tagged
developed using a phosphor screen.

[8] = target: EGFR (Homo sapiens, UniProt P00533); test: EGFR-TK inhibitory assay
Chain of EGFR (P00533 669-1210): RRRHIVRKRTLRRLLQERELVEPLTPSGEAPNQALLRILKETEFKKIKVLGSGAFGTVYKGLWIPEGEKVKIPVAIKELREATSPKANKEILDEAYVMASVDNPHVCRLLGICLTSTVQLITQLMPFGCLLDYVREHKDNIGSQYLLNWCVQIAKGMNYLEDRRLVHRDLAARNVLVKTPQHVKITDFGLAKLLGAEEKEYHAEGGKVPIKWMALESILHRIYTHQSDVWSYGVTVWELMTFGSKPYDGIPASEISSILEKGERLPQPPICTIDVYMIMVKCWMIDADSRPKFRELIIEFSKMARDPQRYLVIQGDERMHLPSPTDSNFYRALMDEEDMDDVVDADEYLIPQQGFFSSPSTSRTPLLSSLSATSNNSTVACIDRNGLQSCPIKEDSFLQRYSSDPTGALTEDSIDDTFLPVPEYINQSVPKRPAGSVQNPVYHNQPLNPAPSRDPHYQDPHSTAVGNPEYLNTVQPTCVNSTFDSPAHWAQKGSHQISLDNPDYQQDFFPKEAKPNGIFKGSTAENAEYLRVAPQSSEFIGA
Description: Baculoviral expression vectors including pBlueBacHis2B and pFASTBacHTc were used
5ʹ upstream to the EGFR sequence comprised a sequence that encoded (His)6.
Sf-9cells were infected for 72h for protein expression. The pellets of Sf-9 cells were solubilized in
a buffer containing sodium vanadate (100 μM), aprotinin (10 μg/mL), triton (1%), HEPES buffer(50mM), ammonium molybdate (10 μM), benzamidine HCl (16 μg/mL), NaCl (10mM), leupeptin (10 μg/mL) and pepstatin (10 μg/mL) at 0°C for 20 min at pH 7.4, followed by centrifugation for 20 min. To eliminate the nonspecifically bound material, a Ni-NTA super flow packed column was used to pass through and wash the crude extract supernatant first with
10mMand then with 100 mM imidazole. Histidine-linked proteins were first eluted with 250 and
then with 500 mM imidazole subsequent to dialysis against NaCl (50 mM), HEPES (20 mM),
glycerol (10%) and 1 μg/mL each of aprotinin, leupeptin and pepstatin for 120 min. The
purification was performed either at 4 °C or on ice. To record autophosphorylation level, EGFR
kinase assay was carried out based on DELFIA/Time-Resolved Fluorometry. The compounds
were first dissolved in DMSO absolute, subsequent to dilution t o appropriate concentration using
HEPES(25 mM) at pH 7.4. Each compound (10 μL) was incubated with recombinant enzyme (10
μL, 5ng for EGFR, 1:80 dilution in 100 mM HEPES) for 10 min at 25 °C, subsequent to the addition of5X buffer (10 μL, containing 2 mM MnCl2, 100 μM Na3VO4, 20 mM HEPES and 1
mM DTT)and ATP-MgCl2 (20 μL, containing 0.1 mM ATP and 50 mM MgCl2) and incubation
for 1h. The negative and positive controls were included in each plate by the incubation of enzyme
either with or without ATP-MgCl2. The liquid was removed after incubation and the plates were
washed thrice using a wash buffer. Europium-tagged anti phosphotyrosine antibody (75 μL, 400
ng) was added to each well followed by incubation of 1h and then washing of the plates using buffer. The enhancement solution was added to each well and the signal was recorded at excitation
The autophosphorylation percentage inhibition by compounds was calculated using the following equation: Using the curves of percentage inhibition

| Structure (SMILES) | IC50 [1] | IC50 [2] | IC50 [3] | IC50 [5] | IC50 [6] | IC50 [7] | IC50 [8] | viability at 4 days, 50 µM [4] | fold less potent than Erlotinib, BRAF^V600E ([7]; ratio of IC50 to Erlotinib) | fold less potent than Erlotinib, EGFR ([8]; ratio of IC50 to Erlotinib) |
| --- | --- | --- | --- | --- | --- | --- | --- | --- | --- | --- |
| N#Cc1c(-c2ccccc2)cc(-c2ccc(NC(=O)CSc3nc4ccccc4c(=O)n3-c3ccccc3)cc2)[nH]c1=O [Compound 12, N-(4-(5-Cyano-6-oxo-4-phenyl-1,6-dihydropyridin-2-yl)phenyl)-2-((4-oxo-3-phenyl-3,4-dihydroquinazolin-2-yl)thio)acetamide] | 7.7 ± 0.7 µM | 7.5 ± 0.6 µM | 7.8 ± 0.7 µM | 7.2 ± 0.7 µM | 7.5 µM |  |  | 86% |  |  |
| COc1ccc(-c2cc(-c3ccc(NC(=O)CSc4nc5ccccc5c(=O)n4-c4ccccc4)cc3)[nH]c(=O)c2C#N)cc1 [Compound 13, N-(4-(5-Cyano-4-(4-methoxyphenyl)-6-oxo-1,6-dihydropyridin-2-yl)phenyl)-2-((4-oxo-3-phenyl-3,4-dihydroquinazolin-2-yl)thio)acetamide] | 3.5 ± 0.3 µM | 3.2 ± 0.3 µM | 3.4 ± 0.3 µM | 3.1 ± 0.3 µM | 3.3 µM |  |  | 87% |  |  |
| N#Cc1c(-c2ccc(Cl)cc2)cc(-c2ccc(NC(=O)CSc3nc4ccccc4c(=O)n3-c3ccccc3)cc2)[nH]c1=O [Compound 14, N-(4-(4-(4-Chlorophenyl)-5-cyano-6-oxo-1,6-dihydropyridin-2-yl)phenyl)-2-((4-oxo-3-phenyl-3,4-dihydroquinazolin-2-yl)thio)acetamide] | 4.2 ± 0.4 µM | 4.1 ± 0.4 µM | 4.2 ± 0.4 µM | 3.9 ± 0.4 µM | 4.1 µM |  |  | 89% |  |  |
| N#Cc1c(-c2ccc(Br)cc2)cc(-c2ccc(NC(=O)CSc3nc4ccccc4c(=O)n3-c3ccccc3)cc2)[nH]c1=O [Compound 15, N-(4-(4-(4-Bromophenyl)-5-cyano-6-oxo-1,6-dihydropyridin-2-yl)phenyl)-2-((4-oxo-3-phenyl-3,4-dihydroquinazolin-2-yl)thio)acetamide] | 4.9 ± 0.4 µM | 4.7 ± 0.4 µM | 5 ± 0.4 µM | 4.6 ± 0.4 µM | 4.8 µM |  |  | 87% |  |  |
| C=CCn1c(SCC(=O)Nc2ccc(-c3cc(-c4ccc(OC)cc4)c(C#N)c(=O)[nH]3)cc2)nc2ccccc2c1=O [Compound 18, 2-((3-Allyl-4-oxo-3,4-dihydroquinazolin-2-yl)thio)-N-(4-(5-cyano-4-(4-methoxyphenyl)-6-oxo-1,6-dihydropyridin-2-yl)phenyl)acetamide] | 1.3 ± 0.1 µM | 1.1 ± 0.1 µM | 1.3 ± 0.1 µM | 1 ± 0.1 µM | 1.2 µM | 0.14 ± 0.01 µM | 0.11 ± 0.01 µM | 90% | 2 fold | 1.4 fold |
| COc1cccc2c1C(=O)c1c(O)c3c(c(O)c1C2=O)C[C@@](O)(C(=O)CO)C[C@@H]3O[C@H]1C[C@H](N)[C@H](O)[C@H](C)O1 [Doxorubicin, reference compound] | 1 ± 0.1 µM | 1.2 ± 0.1 µM | 1.4 ± 0.1 µM | 0.9 ± 0.1 µM | 1.1 µM |  |  |  |  |  |

More lines, main results first:

| IC50 [1] | IC50 [2] | IC50 [3] | IC50 [5] | IC50 [6] | IC50 [7] | IC50 [8] | Structure (SMILES) | viability at 4 days, 50 µM [4] | fold less potent than Erlotinib, BRAF^V600E ([7]; ratio of IC50 to Erlotinib) | fold less potent than Erlotinib, EGFR ([8]; ratio of IC50 to Erlotinib) |
| --- | --- | --- | --- | --- | --- | --- | --- | --- | --- | --- |
| 9.8 ± 0.9 µM | 9.2 ± 0.8 µM | 9.3 ± 0.8 µM | 9.1 ± 0.8 µM | 9.3 µM |  |  | CCn1c(SCC(=O)Nc2ccc(-c3cc(-c4ccccc4)c(C#N)c(=O)[nH]3)cc2)nc2ccccc2c1=O [Compound 7, N-(4-(5-Cyano-6-oxo-4-phenyl-1,6-dihydropyridin-2-yl)phenyl)-2-((3-ethyl-4-oxo-3,4-dihydroquinazolin-2-yl)thio)acetamide] | 90% |  |  |
| 1.7 ± 0.1 µM | 1.5 ± 0.1 µM | 1.7 ± 0.1 µM | 1.4 ± 0.1 µM | 1.6 µM | 0.22 ± 0.015 µM | 0.16 ± 0.012 µM | CCn1c(SCC(=O)Nc2ccc(-c3cc(-c4ccc(OC)cc4)c(C#N)c(=O)[nH]3)cc2)nc2ccccc2c1=O [Compound 8, N-(4-(5-Cyano-4-(4-methoxyphenyl)-6-oxo-1,6-dihydropyridin-2-yl)phenyl)-2-((3-ethyl-4-oxo-3,4-dihydroquinazolin-2-yl)thio)acetamide] | 89% |  |  |
| 2 ± 0.1 µM | 1.8 ± 0.1 µM | 2 ± 0.1 µM | 1.6 ± 0.1 µM | 1.8 µM | 0.29 ± 0.02 µM | 0.19 ± 0.015 µM | CCn1c(SCC(=O)Nc2ccc(-c3cc(-c4ccc(Cl)cc4)c(C#N)c(=O)[nH]3)cc2)nc2ccccc2c1=O [Compound 9, N-(4-(4-(4-Chlorophenyl)-5-cyano-6-oxo-1,6-dihydropyridin-2-yl)phenyl)-2-((3-ethyl-4-oxo-3,4-dihydroquinazolin-2-yl)thio)acetamide] | 96% |  |  |
| 2.7 ± 0.2 µM | 2.4 ± 0.2 µM | 2.6 ± 0.2 µM | 2.2 ± 0.45 µM | 2.5 µM |  |  | CCn1c(SCC(=O)Nc2ccc(-c3cc(-c4ccc(Br)cc4)c(C#N)c(=O)[nH]3)cc2)nc2ccccc2c1=O [Compound 10, N-(4-(4-(4-Bromophenyl)-5-cyano-6-oxo-1,6-dihydropyridin-2-yl)phenyl)-2-((3-ethyl-4-oxo-3,4-dihydroquinazolin-2-yl)thio)acetamide] | 88% |  |  |
| 4 ± 0.3 µM | 3.7 ± 0.3 µM | 3.8 ± 0.3 µM | 3.6 ± 0.3 µM | 3.8 µM |  |  | CCn1c(SCC(=O)Nc2ccc(-c3cc(-c4ccc(F)cc4)c(C#N)c(=O)[nH]3)cc2)nc2ccccc2c1=O [Compound 11, N-(4-(5-Cyano-4-(4-fluorophenyl)-6-oxo-1,6-dihydropyridin-2-yl)phenyl)-2-((3-ethyl-4-oxo-3,4-dihydroquinazolin-2-yl)thio)acetamide] | 91% |  |  |
| 5.1 ± 0.5 µM | 4.8 ± 0.5 µM | 5.1 ± 0.5 µM | 4.7 ± 0.4 µM | 4.9 µM |  |  | N#Cc1c(-c2ccc(F)cc2)cc(-c2ccc(NC(=O)CSc3nc4ccccc4c(=O)n3-c3ccccc3)cc2)[nH]c1=O [Compound 16, N-(4-(5-Cyano-4-(4-fluorophenyl)-6-oxo-1,6-dihydropyridin-2-yl)phenyl)-2-((4-oxo-3-phenyl-3,4-dihydroquinazolin-2-yl)thio)acetamide] | 89% |  |  |
| 9 ± 0.7 µM | 8.4 ± 0.7 µM | 8.9 ± 0.7 µM | 8.1 ± 0.7 µM | 8.6 µM |  |  | C=CCn1c(SCC(=O)Nc2ccc(-c3cc(-c4ccccc4)c(C#N)c(=O)[nH]3)cc2)nc2ccccc2c1=O [Compound 17, 2-((3-Allyl-4-oxo-3,4-dihydroquinazolin-2-yl)thio)-N-(4-(5-cyano-6-oxo-4-phenyl-1,6-dihydropyridin-2-yl)phenyl)acetamide] | 89% |  |  |
| 2.2 ± 0.1 µM | 2.1 ± 0.2 µM | 2.2 ± 0.2 µM | 1.9 ± 0.1 µM | 2.1 µM |  |  | C=CCn1c(SCC(=O)Nc2ccc(-c3cc(-c4ccc(F)cc4)c(C#N)c(=O)[nH]3)cc2)nc2ccccc2c1=O [Compound 21, 2-((3-Allyl-4-oxo-3,4-dihydroquinazolin-2-yl)thio)-N-(4-(5-cyano-4-(4-fluorophenyl) -6-oxo-1,6-dihydropyridin-2-yl)phenyl)acetamide] | 87% |  |  |
